# Source: patent US20030212014A1 (priority 2000, published 2003)
# Where two headings read alike, the source gives them in different places.
# Columns and labels:
# Na+/K+ pump = assay: Radioactive rubidium uptake with and without ouabain in HUVEC; assay type: cell-based, human; settings: 2 mM AICAR for 2 hours
# Method: One of the major ATP users, the Na^+/K^+pump, was investigated. The activity of this pump was tested by measuring the uptake of radioactive rubidium in the absence and presence of ouabain, an Na^+/K^+pump inhibitor. The difference in uptake, which is referred to as ouabain-sensitive Rb^+uptake, is the Na^+/K^+pump activity. […] When the ouabain sensitive component was calculated, no ,difference was seen between the two incubations, (2.11±0.9 and 3.3±0.9 pmol/min/mg protein), thus leading us to believe that no change in Na^+/K^+pump activity had occurred. […] The AMPK activity remained high with a longer incubation time up to 120 minutes.
# [1] = system: human and bovine retinal pericytes; assay: Palmitate-induced apoptosis in retinal pericytes (TUNEL staining); assay type: cell-based
# Method: (§1) Apoptosis was induced by incubating the cells with a medium containing 0-0.5 mM palmitic acid for 3 days. Apoptotic cells were determined by conventional TUNEL staining. Ceramide and DAG levels were measured the by diacylgycerol kinase method using 32P-ATP.
# human retinal pericytes = assay: Ceramide and DAG levels by diacylglycerol kinase method in pericytes; assay type: cell-based
# Method: as §1
# HUVEC [2] = assay: HUVEC metabolism after 16 hrs incubation with 30 mM glucose; assay type: cell-based, human; settings: 1 mM AICAR in 30 mM glucose
# Method: Incubation of HUVEC with 30 mM glucose for 16 hrs decreased free fatty oxidation by 50% (FIG. 7A) and increased free fatty acid incorporation into diacylglycerol (DAG) (i.e., esterification) by 40% (FIG. 7B). These changes were accompanied by a significant decline in mitochondria membrane potential (FIG. 7C).
# HUVEC [3] = assay: Hyperglycemia-induced apoptosis in HUVEC (TUNEL); assay type: cell-based, human; settings: 30 mM glucose + 1 mM AICAR
# Method: (A) Typical TUNEL staining (dark brown) with methylene blue counter-staining. TUNEL positive cells show a typical apoptotic configuration with shrinkage and nuclear fragmentation. […] The percentage of TUNEL positive cells was determined in 3 wells of 6 well plates (24 hr) or in eight of 60 mm dishes. Data are means ±SD.*p<0.05; vs 5 mM glucose. † p<0.05; vs 30 mM glucose alone;
# caspase-3 = assay: Caspase-3 activity in HUVEC incubated with 30 mM glucose; assay type: cell-based, human; settings: 30 mM glucose + AICAR, 24 hr
# Excerpt: A similar effect was observed when AMPK activity was increased by infecting HUVEC with constitutively active AMPK using an adenoviral vector (FIG. 9C).
# juvenile rats = assay: Chronic intermittent AICAR treatment of juvenile rats; assay type: in vivo, rat
# Method: This dose distributed in the extracellular space of the rat (approx. 20 ml/100g b. w.) yields a concentration in the extracellular space of approximately 5 mM.
# Referring to FIG. 19, it can be seen that food intake was diminished by approximately 25% over the first 24 hrs following each injection. The rats appear to compensate by eating more on the following day. […] Cumulative net food intake was diminished only modestly (about 3%) during all long-term studies.
# These include the GLUT 4 glucose transporter, hexokinase and various mitochondrial enzymes including cytochrome C oxidase and citrate synthase. […] Also we found no increase in muscle glycogen.
# rats [4] = assay: Acute effects of AICAR on blood and plasma metabolites and hormones in rats; assay type: in vivo, rat
# [5] = system: liver ACC activity and malonyl CoA; assay: ACC activity and malonyl CoA in liver two hours after AICAR injection; assay type: in vivo, rat
# [6] = system: muscle ACC activity and malonyl CoA; assay: ACC activity and malonyl CoA in muscle two hours after AICAR injection; assay type: in vivo, rat; settings: 250 mg/kg
# high-fat fed (HFF) rats = assay: Euglycemic hyperinsulinemic clamp in HFF rats 24 h after AICAR injection; assay type: in vivo, rat
# Method: They were then returned to their cages and given a high-fat meal. […] To avoid the possible effects of a reduced caloric intake, the HFF-Con animals were pair-fed with HFF-AIC rats. 24 h after the injection, and after a 5-7 h fasting period, the rats were submitted to an euglycemic hyperinsulinemic clamp, to determine the whole body insulin sensitivity.
# rats [7] = settings: cited from earlier work
# [8] = 1 mM AICAR vs 0.5 mM palmitate alone
# [9] = 250 mg/kg, 3 days/wk over 106 days
# [10] = 12-week study period, not statistically significant
# [11] = clamp 24 h after 250 mg/kg AICAR
smiles,measurement,setting,value
"NC(=O)c1ncn([C@@H]2O[C@H](CO)[C@@H](O)[C@H]2O)c1N [AICAR, 5-aminoimidizole-4-carboxamide riboside]",ouabain-sensitive Rb+ uptake (Na+/K+ pump activity),Na+/K+ pump,3.3±0.9 pmol/min/mg protein
same,total rubidium uptake,Na+/K+ pump,6.0 ±0.3 pmol/min/mg protein
same,apoptotic cells (TUNEL),"[1]; 0.5 mM palmitate + 1 mM AICAR, 3 days",10±2%
same,decrease in apoptosis,[1]; [8],50%
same,DAG levels,human retinal pericytes; 0.5 mM palmitate + 1 mM AICAR,24±5 nmol/mg protein
same,ceramide levels,human retinal pericytes; 0.5 mM palmitate + 1 mM AICAR,3.8±1 nmol/mg protein
same,decrease in DAG levels,human retinal pericytes; [8],50%
same,decrease in ceramide levels,human retinal pericytes; [8],60%
same,decline in mitochondria membrane potential caused by 30 mM glucose,HUVEC [2],prevented all these changes
same,decrease in free fatty acid oxidation caused by 30 mM glucose,HUVEC [2],prevented all these changes
same,increase in free fatty acid incorporation into diacylglycerol caused by 30 mM glucose,HUVEC [2],prevented all these changes
same,apoptotic rate (TUNEL-positive cells),HUVEC [3]; 24 hours,no affect
same,increase in apoptosis caused by hyperglycemia,HUVEC [3]; 72 hours,completely prevented
same,caspase-3 activity,caspase-3,833±14 arbitrary unit
same,decrease in food intake over the first 24 hrs following each injection,"juvenile rats; 250 mg/kg 3 times/week, chow diet",approximately 25%
same,hepatic enlargement,juvenile rats; 250 mg/kg intermittent regimen,no hepatic enlargement
same,"hepatocellular damage, morphologically (light microscope)",juvenile rats; 250 mg/kg intermittent regimen,no evidence of hepatocellular damage
same,"decrease in mass of intra-abdominal (retroperitoneal, mesenteric, epididymal) fat depots","juvenile rats; 250 mg/kg s.c. M, W, F for 25 days",20-40%
same,"GLUT 4, UCP3, cytochrome C oxidase (RT-PCR) and citrate synthase activity in muscle",juvenile rats; [9],no changes
same,muscle glycogen,juvenile rats; [9],no increase
same,"weights of the heart, liver or other organs","juvenile rats; 250 mg/kg, at 25 days",no differences
same,muscle mass,"juvenile rats; 250 mg/kg, at 106 days",increase in muscle mass is suggested
same,decrease in food intake,juvenile rats; [10],3-4%
same,weight gain less than control,juvenile rats; [10],32 g
same,decrease in plasma triglycerides,"juvenile rats; 25 days treatment, 250 mg/kg",40%
same,plasma leptin,"juvenile rats; 25 days treatment, 24 hrs following the last injection",significantly diminished
same,decrease in cumulative net food intake,juvenile rats; all long-term studies,about 3%
same,glucose and insulin levels during an oral glucose tolerance test,juvenile rats; chronic AICAR treatment,lower
same,plasma insulin levels,juvenile rats; chronic AICAR treatment,significantly diminished
same,tolerability / gross toxicity,"juvenile rats; rat, in vivo, sc, 250 mg/kg",without evidence of gross toxicity
same,blood glucose levels,"rats [4]; 250 mg/kg, 2-6 hours following administration",moderately diminished
same,blood lactate,"rats [4]; acute, high doses",increase
same,plasma free fatty acid (FFA) levels,"rats [4]; acute, high doses",decrease
same,plasma leptin,"rats [4]; all doses studied, at 2 hrs",did not significantly alter
same,plasma triglycerides,"rats [4]; all doses studied, at 2 hrs",did not significantly alter
same,dose at which maximal effect on liver ACC activity and malonyl CoA was observed,[5],500 mg/kg
same,ACC activity in liver,[5]; 250 mg/kg,significantly diminished
same,malonyl CoA concentration in liver,[5]; 250 mg/kg,significantly diminished
same,ACC activity in muscle,[6],did not depress ACC significantly
same,malonyl CoA levels in muscle,[6],no effect
same,levels of muscle triglycerides or long chain fatty acyl CoA (LCFACoA),high-fat fed (HFF) rats; after clamp,no significant change
same,decrease in liver malonyl-CoA,"high-fat fed (HFF) rats; after clamp, vs HFF-Con",21%
same,reduction of liver triglycerides accumulation,"high-fat fed (HFF) rats; after clamp, vs HFF-Con",33%
same,food eaten overnight,"high-fat fed (HFF) rats; after single 250 mg/kg s.c. injection, high-fat meal",minor reduction
same,reduction of malonyl-CoA in red muscle,"high-fat fed (HFF) rats; after the clamp, vs HFF-Con",44%
same,basal plasma glucose (hyperglycemia caused by high-fat feeding),"high-fat fed (HFF) rats; basal state, 24 h after AICAR",decreased the hyperglycemia
same,"other basal plasma parameters (insulin, FFA, triglycerides)","high-fat fed (HFF) rats; basal state, vs HFF-Con",did not alter
same,Rd,high-fat fed (HFF) rats; [11],slight but not significant increase
same,increase in glucose infusion rate (GIR),high-fat fed (HFF) rats; [11],50%
same,HGO under insulin,"high-fat fed (HFF) rats; clamp 24 h after 250 mg/kg AICAR, p>0.05 vs. Chow",close to the normal value
same,increase in Rg' (rate of glucose uptake) in white muscle,high-fat fed (HFF) rats; clamp 24 h after AICAR,79%
same,Rg' in red muscle,"high-fat fed (HFF) rats; clamp 24 h after AICAR, p=0.085",tendency of increased
same,insulin-stimulated glucose incorporation into glycogen,high-fat fed (HFF) rats; white and red muscle,significantly increased
same,blood glucose levels,"rats [7]; 500 mg/kg/twice daily, control and diabetic rats (U.S. Pat. No. 5,658,889)",lowers
same,liver size,rats [7]; 1000 mg/kg body weight daily for 28 days (Winder),hepatic enlargement
same,muscle glycogen,rats [7]; 1000 mg/kg/day for 28 days (Winder et al.),increased
